From patent US8642785B2, “Photolabile dinitroindolinyl based compounds” (Philadelphia Health & Education Corporation, priority 2007, dated 2014)
Several values for one entry are separate records, joined by “and”; a condition that tells them apart may be missing. Equal values may be shown once. Blank lines part the entries; values can stand above or below the compound they belong to.

How the values were obtained:
[1] = Basic photochemical properties: one-photon photolysis / quantum yield determination by comparison with MNI-Glu; format: physicochemical; settings: for φ, quantum yield: Table 1, measured against MNI-Glu, filtered 280-400 nm Hg lamp; for ε · φ: product of extinction coefficient and quantum yield, in M-1 cm-1 (unit assumed); for quantum yield of photolysis: pH 7.4, compared with MNI-Glu; for photolyzed faster than MNI-Glu: pH 7.4, continuous-wave mercury arc lamp
Description: The data imply that the quantum yield for release of L-glutamate from CDNI-Glu was about 0.5.
The extent of photolysis was measured either by HPLC (with inosine as the internal standard), or using the inherent changes in the UV-visible absorption spectra of the chromophores (FIGS. 4A-4D).
Quantum yield determination. The quantum yield for uncaging the new caged amino acids (CDNI-Glu, CNL-Glu, CNI-GABA and CNI-GABA) were measured by comparing the time of photolysis with the filtered (280-400 nm) output of a 500 W medium pressure Hg lamp of an equimolar solution (0.25 mM) of MNI-Glu and new cage. Inosine was used an inert internal standard. The path-length of the cuvette was 0.1 mm. The extent of reaction was monitored by HPLC as described previously (Huang, et al., 2005). […] Both methods gave very similar results.

[2] = Two-photon (action) cross section; format: physicochemical; settings: for δ (relative), two-photon action cross section: MNI-Glu = 1
Description: (§1) What is the reason for continued focus on cage development? […] The first good caged glutamate was CNB-Glu (Weiboldt, et al., 1994). UV-laser excitation released glutamate quickly and with usable efficiency from this caged compound. […] For this reason, Bhc- and DMCNB-Glu were synthesized (Furuta et al., 1999; Ellis-Davies, 1999). […] However, when used for 2-photon photolysis MNI-Glu is applied at high concentrations (5-12 mM) that must be irradiated with powers at the very limit of tolerance for brain tissue (Matsuzaki, et al., 2004). For this reason, an even better caged glutamate is desired. An NI-Glu derivative was made containing a cross-linked benzophenone chromophore (“antenna-NI-Glu”, Papageorgiou, et al., 2004). When UV light (300-308 nm) was used to excite the benzophenone antenna, triplet energy transfer to the MNI cage released glutamate with high efficiency, which dropped considerably (ca. 2.5-fold) at 354 nm. […] In contrast, the inventor was able to uncage CDNI-Glu at 354 nm with very high efficiency (similar to the antenna-NI-Glu at 300 nm).
Given the power-squared law for 2-photon excitation (Denk, et al., 1990), this implies that the new chromophore is about 140-250 higher action cross-section for 2-photon uncaging, defined by Denk et al. (1990).
(§2) In order to evoke currents with CNI-GABA 20 mW for 2 ms and 10 mM must be used, whereas with CDNI-GABA only 4 mW and 0.5 mM are required. […] The effectiveness of CDNI-GABA is believed to be an important asset because high concentrations of the cages block GABA receptor before uncaging.
AMPA receptor currents evoked by 2-photon uncaging of MNI-Glu and CDNI-Glu on CA1 pyramidal neurons in acutely isolated brain slices were compared. An image of neuron from slice of hippocampus Post-natal day 15 (P15) rat brain was obtained. MNI-Glu and CNDI-Glu were applied at 10 mM and 2.5 mM to the same neuron, and glutamate was uncaged in the image area at 2 power levels according to methods previously described in Matsuzaki, et al., 2001 (compare FIGS. 5A & 5B, MNI-Glu currents shown on right hand side, CDNI-Glu currents shown on left hand side). The currents evoked by uncaging from CNDI-Glu were approximately 2-3× larger than MNI-Glu, implying 5-10× better reactivity for 2-photon uncaging.

[3] = Hydrolysis of solutions stored at 4° C.; format: physicochemical
Description: as §1

[4] = laser flash photolysis (Gee, et al., 1994); cited from earlier work
GABA receptors [5] = settings: outside-out membrane patches (Jayaraman, et al., 1999); cited from earlier work
[6] = 1 GM=10^−50 cm^4s/photon; background; cited from earlier work
[7] = background; cited from earlier work
GABA receptors [8] = assay: 2-photon uncaging of caged GABA on hippocampal CA1 neurons in acutely isolated brain slices; format: cell-based, rat; settings: for concentration of caged compound required to evoke currents / laser power required to evoke currents: 2-photon uncaging; for laser power required to evoke currents: 720 nm; for block of GABA receptor by the cage before uncaging: CNI-GABA at high concentrations, CDNI-GABA in smaller amount
AMPA receptors = assay: 2-photon uncaging of caged glutamate, AMPA receptor currents on CA1 pyramidal neurons in acutely isolated brain slices; format: cell-based, rat
[9] = Solubility in physiological buffer; format: physicochemical; settings: for solubility (in words): physiological buffer / pH
Description: as §2
Advantageously, inventor had discovered that addition of the negative charge with CDNI-Glu solves both of these problems

SMILES: NCCCC(=O)OC(C(=O)O)c1ccccc1[N+](=O)[O-] (centres unmarked) [CNB-GABA]
- half-time of neurotransmitter release [4]: about 30 microseconds
- 10-90% rise time of activated currents (GABA receptors [5]): about 8 ms

SMILES: N[C@@H](CCC(=O)OC(C(=O)O)c1ccccc1[N+](=O)[O-])C(=O)O (some centres unmarked) [CNB-Glu]
- 2-photon cross section [6]: less than 0.001 GM
- hydrolytic stability (in words) [7]: some what hydrolytically unstable

SMILES: NCCCC(=O)N1CCc2c(OCC(=O)O)c([N+](=O)[O-])cc([N+](=O)[O-])c21 [CDNI-GABA, (1-[4-Aminobutanoyl]-5,7-dinitroindolin-4-yloxy)acetic acid]
- ε, molar extinction coefficient [1]: 8,600 M^−1 cm^−1
- φ, quantum yield [1]: 0.6
- quantum yield of photolysis [1]: 0.6
- photolyzed faster than MNI-Glu [1]: 700%
- ε · φ [1]: 5160
- concentration of caged compound required to evoke currents (GABA receptors [8]): 0.5 mM and 0.55 mM
- laser power required to evoke currents (GABA receptors [8]): 4 mW
- block of GABA receptor by the cage before uncaging (GABA receptors [8]): not blocking before uncaging
- effectiveness relative to CNI-GABA (GABA receptors [8]; GABA receptors on CA1 neurons): 5-10 times
- δ (relative), two-photon action cross section [2]: 5-10

SMILES: N[C@@H](CCC(=O)N1CCc2c(OCC(=O)O)c([N+](=O)[O-])cc([N+](=O)[O-])c21)C(=O)O [CDNI-Glu]
- ε, molar extinction coefficient [1]: 8,600 M^−1 cm^−1
- release of L-glutamate on photolysis ([1]; NMR analysis of the reaction mixture): essentially quantitatively
- φ, quantum yield [1]: 0.5
- quantum yield for release of L-glutamate ([1]; pH 7.4): about 0.5
- quantum yield of photolysis [1]: about 0.5
- ε · φ [1]: 4,300
- currents evoked by 2-photon uncaging, times larger than MNI-Glu (AMPA receptors; 2.5 mM vs MNI-Glu 10 mM on the same neuron, P15 rat hippocampus slice, listed as CNDI-Glu): 2-3 times and 3-4 times
- biological inertness of the cage toward AMPA receptors (AMPA receptors; before uncaging): biologically inert
- rise- and decay-times of the evoked currents compared with MNI-Glu (AMPA receptors; same CA1 pyramidal neuron): similar
- AMPA-receptor currents relative to MNI-Glu (AMPA receptors; sequential alternating application and uncaging on the same CA1 pyramidal neuron, same laser energy): five-times larger
- action cross-section for 2-photon uncaging, higher than MNI-Glu ([2]; implied by power-squared law for 2-photon excitation): 140-250
- δ (relative), two-photon action cross section [2]: 5-10
- hydrolysis after 13 d [3]: 7%
- solubility (in words) [9]: smooth solubilization of useful concentrations

Second part, led by results:

- ε, molar extinction coefficient [1]: 4,300 M^−1 cm^−1
- φ, quantum yield [1]: 0.085
- ε · φ [1]: 366
- δ (relative), two-photon action cross section [2]: 1
- hydrolysis after 2 d [3]: no detectable hydrolysis
- hydrolysis after 13 d [3]: 1%
SMILES: COc1ccc([N+](=O)[O-])c2c1CCN2C(=O)CC[C@H](N)C(=O)O [MNI-Glu, Methoxynitroindoline-caged L-glutamate, reference compound]

- current signals from hippocampal neurons on 2-photon uncaging (AMPA receptors; 1 mM solutions): did not evoke any current signals
- concentration of solutions that could be made [9]: ≥ 1000 µM
- behaviour of buffer solution when frozen ([9]; buffer, frozen, then room temperature): precipitate in buffer when frozen
SMILES: COc1c([N+](=O)[O-])cc([N+](=O)[O-])c2c1CCN2C(=O)CCC(N)C(=O)O (centres unmarked) [MDNI-Glu, 4-methoxy-5,7-dinitroinlinylglutamate]

- solubility (in words) [9]: not soluble enough for uncaging
SMILES: COc1ccc([N+](=O)[O-])c2c1CCN2C(=O)CCCN [MNI-GABA]

- ε, molar extinction coefficient [1]: 4,300 M^−1 cm^−1
- φ, quantum yield [1]: 0.1
- quantum yield of photolysis [1]: 0.1
- photolyzed faster than MNI-Glu [1]: about 10%
- ε · φ [1]: 430
- block of GABA receptor by the cage before uncaging (GABA receptors [8]): partially blocks
- δ (relative), two-photon action cross section [2]: 1
SMILES: NCCCC(=O)N1CCc2c(OCC(=O)O)ccc([N+](=O)[O-])c21 [CNI-GABA]
- concentration of caged compound required to evoke currents (GABA receptors [8]): 10 mM
- laser power required to evoke currents (GABA receptors [8]): 20 mW

- ε, molar extinction coefficient [1]: 4,300 M^−1 cm^−1
- fraction photolyzed during the time required for complete photolysis of CDNI-Glu ([1]; NMR analysis of a photolysis solution of 7, CNI-Glu and CDNI-Glu): about 10%
- φ, quantum yield [1]: 0.1
- quantum yield of photolysis [1]: about 0.1
- ε · φ [1]: 430
- δ (relative), two-photon action cross section [2]: 1
SMILES: NC(CCC(=O)N1CCc2c(OCC(=O)O)ccc([N+](=O)[O-])c21)C(=O)O (centres unmarked) [CNI-Glu, 4-carboxymethoxy-7-nitroinlinylglutamate]
